Consider 22 substances from patent US20210189342A1, “COMPOSITIONS AND METHODS FOR MODULATING MONOCYTE AND MACROPHAGE INFLAMMATORY PHENOTYPES AND IMMUNOTHERAPY USES THEREOF” (Verseau Therapeutics, Inc., priority 2018, published 2021).

One may read the IC50 as the concentration at which inhibition is half-maximal.

The subject of the first data set is CD53. Briefly: siRNA dose response, CD53 mRNA knockdown, bDNA Assay. The conditions noted are these: THP-1, 24 hr. The class given is cell-based, human. On the procedure:
(§1) Dose response curves for siRNAs were generated in vitro using a variety of cell lines according to Table 4.
(§2) Briefly, cells were seeded in 96-well plates and reverse transfected with siRNA, Lipofectamine® 2000 (0.5 uL/well; ThermoFisher), and, in some cases, a reporter plasmid (50 ng/well). The reporter plasmid (psiCHECK™-2, Promega) encoded both firefly luciferase and the gene of interest fused to renilla luciferase; silencing of the gene of interest results in proportional silencing of renilla luciferase but leaves firefly luciferase unaffected as an internal control.
(§3) After 24 hr incubation at 37° C., mRNA knockdown was measured using an endpoint assay. For targets without a reporter plasmid, a branched DNA (bDNA) assay was performed according to the manufacturer's instructions (QuantiGene® Singleplex Gene Expression Assay, ThermoFisher) to measure both the target gene and GAPDH (housekeeping gene) mRNA. Data are plotted as siRNA concentration (nM) vs. remaining mRNA (ratio of target gene to GAPDH, normalized to mock siRNA-transfected cells). For targets with a reporter plasmid, a Dual-Glo® Luciferase Assay was performed according to the manufacturer's instructions (Promega) to measure firefly and renilla luciferase expression. Data are plotted as siRNA concentration (nM) vs. remaining mRNA (ratio of renilla to firefly luminescence, normalized to mock siRNA-transfected cells).
(§4) For all dose response curves, a 4-parameter logistic model was applied to determine the IC50 of each siRNA sequence (Table 5 and FIG. 2). Data shown in Table 5 and FIG. 2 represent the mean of quadruplicates, +/−standard deviation.
With “XD-09201: siRNA targeting CD53 (sense 5'-gcAuGAGuAGcuugAAAcudTsdT-3'; antisense 5'-AGUUUcAAGCuACUcAUGCdTsdT-3'; as printed in the source, key not given here)”, the IC50 is 0.067 nM.
“XD-09203: siRNA targeting CD53 (sense 5'-gcAuGGGcucuAucAAGGAdTsdT-3'; antisense 5'-UCCUUGAuAGAGCCcAUGCdTsdT-3'; as printed in the source, key not given here)”: the 50% inhibitory concentration (IC50) was determined as 0.178 nM.
In turn, “XD-09205: siRNA targeting CD53 (sense 5'-acuAAuAucuGAGcAucuudTsdT-3'; antisense 5'-AAGAUGCUcAGAuAUuAGUdTsdT-3'; as printed in the source, key not given here)” gave an IC50 of 0.132 nM.
Take “XD-09207: siRNA targeting CD53 (sense 5'-agGGcAAGAucucauuucAdTsdT-3'; antisense 5'-UGAAAUGAGAUCUUGCCCUdTsdT-3'; as printed in the source, key not given here)”: half-maximal inhibition (IC50) required 0.038 nM.
Substance “XD-09208: siRNA targeting CD53 (sense 5'-uuuAuuAGAGGGccuuAuudTsdT-3'; antisense 5'-AAuAAGGCCCUCuAAuAAAdTsdT-3'; as printed in the source, key not given here)” showed an IC50 of 0.162 nM.
“XD-09209: siRNA targeting CD53 (sense 5'-auuGAuGuGuucuaAGucudTsdT-3'; antisense 5'-AGACUuAGAAcAcAUcAAUdTsdT-3'; as printed in the source, key not given here)” showed an IC50 of 0.041 nM.

The subject of another data set is LRRC25. Briefly: siRNA dose response, LRRC25 mRNA knockdown, Dual-Glo Luciferase Assay. To be noted: Hepa1-6 + reporter plasmid, 24 hr. The class given is cell-based, human. Here is the method:
as §1, §2, §3, §4
Regarding “XD-09250: siRNA targeting LRRC25 (sense 5'-gccAGAGGAAcGccAGcGAdTsdT-3'; antisense 5'-UCGCUGGCGUUCCUCUGGCdTsdT-3'; as printed in the source, key not given here)”, the IC50 is 15 nM.
On the same count and under the same terms, the same measure for “XD-09251: siRNA targeting LRRC25 (sense 5'-gccGucGcuuuuccAGcAudTsdT-3'; antisense 5'-AUGCUGGAAAAGCGACGGCdTsdT-3'; RNA with 2'-O-methyl and phosphorothioate modifications, case key not given here, as printed in the source, key not given here)”: 2.77 nM.
As for “XD-09256: siRNA targeting LRRC25 (sense 5'-ccGAcuAuGAGAAcAuGuudTsdT-3'; antisense 5'-AAcAUGUUCUcAuAGUCGGdTsdT-3'; as printed in the source, key not given here)”, the IC50 came out at 0.601 nM.
Same read-out and setting: the same measure for “XD-09258: siRNA targeting LRRC25 (sense 5'-caAuAAAuGcuucgAGGcudTsdT-3'; antisense 5'-AGCCUCGAAGcAUUuAUUGdTsdT-3'; RNA with 2'-O-methyl and phosphorothioate modifications, case key not given here, as printed in the source, key not given here)”: 0.033 nM.
For “XD-09259: siRNA targeting LRRC25 (sense 5'-cuucGAGGcuGAugAGGcudTsdT-3'; antisense 5'-AGCCUcAUcAGCCUCGAAGdTsdT-3'; RNA with 2'-O-methyl and phosphorothioate modifications, case key not given here, as printed in the source, key not given here)”, the IC50 stood at 0.293 nM.

The next data set has as its system FERMT3. Briefly: siRNA dose response, FERMT3 mRNA knockdown, bDNA Assay. The class given is cell-based, human. The conditions noted are these: THP-1, 24 hr. On the procedure:
as §1, §2, §3, §4
Take “XD-09701: siRNA targeting FERMT3 (sense 5'-ggcuGcGcuucAAguAcuAdTsdT-3'; antisense 5'-uAGuACUUGAAGCGcAGCCdTsdT-3'; RNA with 2'-O-methyl and phosphorothioate modifications, case key not given here, as printed in the source, key not given here)”: the IC50 is 0.921 nM.
Substance “XD-09705: siRNA targeting FERMT3 (sense 5'-guucccGAuGuuAacGucudTsdT-3'; antisense 5'-AGACGUuAAcAUCGGGAACdTsdT-3'; RNA with 2'-O-methyl and phosphorothioate modifications, case key not given here, as printed in the source, key not given here)” had a 50% inhibitory concentration (IC50) of 6.75 nM.
Take “XD-09708: siRNA targeting FERMT3 (sense 5'-gcuGccGAAuuGuacAcGAdTsdT-3'; antisense 5'-UCGUGuAcAAUUCGGcAGCdTsdT-3'; RNA with 2'-O-methyl and phosphorothioate modifications, case key not given here, as printed in the source, key not given here)”: the IC50 came out at 0.012 nM.

The next data set deals with CCR5. Briefly: siRNA dose response, CCR5 mRNA knockdown, Dual-Glo Luciferase Assay. Type of data set: cell-based, human. The conditions noted are these: Hepal-6 + reporter plasmid, 24 hr. On the procedure:
as §1, §2, §3, §4
As for “XD-10553: siRNA targeting CCR5 (sense 5'-agGuAuGGuuAAuaAGuuudTsdT-3'; antisense 5'-AAACUuAUuAACcAuACCUdTsdT-3'; as printed in the source, key not given here)”, the IC50 was found to be 0.361 nM.
Regarding “XD-10558: siRNA targeting CCR5 (sense 5'-gcAcAuAcuuGAGacuGuudTsdT-3'; antisense 5'-AAcAGUCUcAAGuAUGUGCdTsdT-3'; as printed in the source, key not given here)”, the half-maximal inhibitory concentration (IC50) came to 1.05 nM.
As to “XD-10559: siRNA targeting CCR5 (sense 5'-gcAAcGAAGGGAAauGucudTsdT-3'; antisense 5'-AGAcAUUUCCCUUCGUUGCdTsdT-3'; as printed in the source, key not given here)”, the half-inhibitory concentration (IC50) was found to be 1.02 nM.

Another data set has as its system DOCK2. Briefly: siRNA dose response, DOCK2 mRNA knockdown, bDNA Assay. The class given is cell-based, human. The conditions noted are these: THP-1, 24 hr. On the procedure:
as §1, §2, §3, §4
In turn, “XD-09691: siRNA targeting DOCK2 (sense 5'-ggGGAuAccucAuaAAGcAdTsdT-3'; antisense 5'-UGCUUuAUGAGGuAUCCCCdTsdT-3'; RNA with 2'-O-methyl and phosphorothioate modifications, case key not given here, as printed in the source, key not given here)” yielded an IC50 of 11.7 nM.
In turn, “XD-09694: siRNA targeting DOCK2 (sense 5'-ccAucuGcGAuucauGuuudTsdT-3'; antisense 5'-AAAcAUGAAUCGcAGAUGGdTsdT-3'; RNA with 2'-O-methyl and phosphorothioate modifications, case key not given here, as printed in the source, key not given here)” registered an IC50 of 0.403 nM.
Substance “XD-09696: siRNA targeting DOCK2 (sense 5'-cucAuuGcAGAccgGAAAudTsdT-3'; antisense 5'-AUUUCCGGUCUGcAAUGAGdTsdT-3'; RNA with 2'-O-methyl and phosphorothioate modifications, case key not given here, as printed in the source, key not given here)” gave an IC50 of 1.77 nM.
For the substance “XD-09697: siRNA targeting DOCK2 (sense 5'-accGGAAAuuucAgcAuuudTsdT-3'; antisense 5'-AAAUGCUGAAAUUUCCGGUdTsdT-3'; RNA with 2'-O-methyl and phosphorothioate modifications, case key not given here, as printed in the source, key not given here)”, the half-inhibitory concentration (IC50) was found to be 0.556 nM.
Turning to “XD-09698: siRNA targeting DOCK2 (sense 5'-ggucGAGGAcAuuauuuucdTsdT-3'; antisense 5'-GAAAAuAAUGUCCUCGACCdTsdT-3'; as printed in the source, key not given here)”, half-maximal inhibition (IC50) was put at 1.36 nM.
